Values of other authors in patent US7001904B1, “Guanidine derivatives quinazoline and quinoline for use in the treatment of autoimmune diseases” (AstraZeneca AB, priority 2000, dated 2006).

Molecular target: EGF RTK (Homo sapiens, UniProt P00533)
Settings: Bioorganic & Medicinal Chemistry Letters, 1997, 7, 2723–2728

Sequence of EGF RTK (P00533 25-1210): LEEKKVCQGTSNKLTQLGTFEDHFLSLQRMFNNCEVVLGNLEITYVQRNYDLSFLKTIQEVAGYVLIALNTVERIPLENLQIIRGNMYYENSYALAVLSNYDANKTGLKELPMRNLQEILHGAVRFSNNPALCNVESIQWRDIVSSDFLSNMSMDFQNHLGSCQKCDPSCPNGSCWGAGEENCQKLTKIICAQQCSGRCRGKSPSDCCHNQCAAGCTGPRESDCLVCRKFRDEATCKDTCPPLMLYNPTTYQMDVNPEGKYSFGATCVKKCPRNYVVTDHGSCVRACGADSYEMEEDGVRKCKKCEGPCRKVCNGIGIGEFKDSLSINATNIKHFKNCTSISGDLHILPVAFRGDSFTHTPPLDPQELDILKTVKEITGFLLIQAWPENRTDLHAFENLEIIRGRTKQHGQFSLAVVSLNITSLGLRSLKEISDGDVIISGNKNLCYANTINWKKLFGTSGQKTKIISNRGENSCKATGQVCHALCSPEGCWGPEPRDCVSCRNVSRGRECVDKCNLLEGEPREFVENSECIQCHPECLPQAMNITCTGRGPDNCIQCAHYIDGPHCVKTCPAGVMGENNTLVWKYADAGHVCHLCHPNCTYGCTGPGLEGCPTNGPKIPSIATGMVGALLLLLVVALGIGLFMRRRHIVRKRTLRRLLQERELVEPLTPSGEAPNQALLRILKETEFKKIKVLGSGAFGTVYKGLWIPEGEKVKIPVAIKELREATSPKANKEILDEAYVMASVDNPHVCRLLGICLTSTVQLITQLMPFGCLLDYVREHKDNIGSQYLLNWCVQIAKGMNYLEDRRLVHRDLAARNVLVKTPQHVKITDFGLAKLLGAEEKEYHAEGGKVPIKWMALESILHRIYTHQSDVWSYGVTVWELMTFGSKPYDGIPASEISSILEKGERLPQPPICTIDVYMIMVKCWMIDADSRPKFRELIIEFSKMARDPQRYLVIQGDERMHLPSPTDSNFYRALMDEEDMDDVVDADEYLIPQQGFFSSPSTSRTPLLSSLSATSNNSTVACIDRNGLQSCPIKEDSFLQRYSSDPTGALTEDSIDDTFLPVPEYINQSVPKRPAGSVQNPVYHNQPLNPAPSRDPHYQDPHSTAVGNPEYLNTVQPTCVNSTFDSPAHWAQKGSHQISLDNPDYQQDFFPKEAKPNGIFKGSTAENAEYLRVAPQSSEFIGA

- EGF RTK inhibition: inactive
Structure (SMILES): COc1cc2ncnc(NC(=O)Nc3ccccc3)c2cc1OC [1-(6,7-dimethoxyquinazolin-4-yl)-3-phenylurea]
